In patent US20260207621A1 (Vividion Therapeutics, Inc., priority 2022, published 2026) one finds IC50 and Emax data, which are given here for 15 molecules.

Structures are written as SMILES.

One assay concerns the target T1, KEAP1 C151 (Homo sapiens, UniProt Q14145).
T1 construct: treating 500 μg of cell lysate generated from MDA-MB-468 breast cancer cells with DMSO or compound; endogenous in cells; host or cells: MDA-MB-468 breast cancer cell lysate
The assay can be described thus: Nrf2 TMT measurement: in vitro TE50 for KEAP1 C151 (IA-DTB competition, targeted TMT mass spectrometry) in MDA-MB-468 cell lysate. In kind it is binding. As to conditions: in vitro target engagement of KEAP1 C151, targeted TMT, read-out: KEAP1_C151 TE50. A digest of the protocol:
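Occupancy of KEAP1 C151 measured as loss of IA-DTB labeling (200 μM, 1 h, room temperature) after 1 h compound pre-treatment of MDA-MB-468 cell lysate.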

In the next assay the test system is Nrf2. The assay can be described thus: Nrf2 antagonism assay: ARE luciferase reporter in KYSE-70 cells. Format: cell-based. The conditions noted are these: Homo sapiens, KYSE-70, KYSE-70 cells, positive Imax corresponds to Nrf2 antagonism, read-out: KYSE70 Cellular ARE Luciferase Imax (%). A digest of the protocol:
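Dose-response curves give IC50 and Imax, with positive Imax read as Nrf2 antagonism, i.e. reduced luciferase signal. Reporter cells are Nrf2-high KYSE-70 (Nrf2 W24C mutant) bearing ARE-controlled luciferase. Antagonists are proposed to act at KEAP1 C151, speeding Nrf2 degradation.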

T1 sequence (Q14145 whole entry): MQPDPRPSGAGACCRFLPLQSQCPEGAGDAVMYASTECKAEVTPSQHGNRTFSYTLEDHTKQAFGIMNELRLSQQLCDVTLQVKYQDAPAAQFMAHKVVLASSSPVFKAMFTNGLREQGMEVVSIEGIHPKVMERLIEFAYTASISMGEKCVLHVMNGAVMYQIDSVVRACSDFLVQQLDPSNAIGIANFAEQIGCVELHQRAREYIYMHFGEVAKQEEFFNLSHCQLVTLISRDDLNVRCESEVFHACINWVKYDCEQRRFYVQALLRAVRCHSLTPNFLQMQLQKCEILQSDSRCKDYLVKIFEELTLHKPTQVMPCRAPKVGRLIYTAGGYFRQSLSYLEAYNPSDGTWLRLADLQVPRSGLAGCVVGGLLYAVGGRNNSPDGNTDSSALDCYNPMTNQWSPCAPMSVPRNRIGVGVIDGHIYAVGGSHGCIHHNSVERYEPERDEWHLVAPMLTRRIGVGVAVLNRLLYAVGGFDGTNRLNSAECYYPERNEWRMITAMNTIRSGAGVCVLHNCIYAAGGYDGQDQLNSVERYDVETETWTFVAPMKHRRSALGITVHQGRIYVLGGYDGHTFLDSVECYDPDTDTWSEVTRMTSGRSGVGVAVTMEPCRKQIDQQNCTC

On to `C=CC(=O)N1CCOC[C@H]1c1cc(Cl)cc(-c2cc(N)nc(Cl)n2)c1` (single isomer, unassigned) [Compound 271], for which, at KEAP1 C151, the IC50 stood at 59 nM. In addition, in the assay on Nrf2, the Emax worked out at 93%.

As for `C=CC(=O)N1CCOC[C@H]1c1cc(Cl)cc(-c2nc(Cl)ncc2N)c1` (single isomer, unassigned) [Compound 268], the IC50 on KEAP1 C151 stood at 490 nM. Moreover, the Emax in the assay on Nrf2 turned out to be 53%.

For the molecule `C=CC(=O)N1[C@H](CC#N)COC[C@H]1c1cc(Cl)cc(-c2cc(N)ncn2)c1` (single isomer, unassigned) [Compound 204], on KEAP1 C151, the IC50 turned out to be 11 nM. For the same molecule, in the assay with Nrf2, the Emax was determined as 86%.

In the case of `C=CC(=O)N1CCOC[C@H]1c1cc(Cl)cc(-c2nc(C)cc(N)n2)c1` (single isomer, unassigned) [Compound 95], the IC50 on KEAP1 C151 was 25 nM. Besides, the Emax in the assay with Nrf2 was found to be 94%.

With `C=CC(=O)N1CCN(S(C)(=O)=O)CC1c1cc(Cl)cc(-c2ccnc(NC(C)=O)c2)c1` (single isomer, unassigned) [Compound 6, N-(4-(3-(1-acryloyl-4-(methylsulfonyl)piperazin-2-yl)-5-chlorophenyl)pyridin-2-yl)acetamide], the IC50 on KEAP1 C151 amounted to 2.6 nM. For the same molecule, the Emax with Nrf2 was determined as 58%.

As to `C=CC(=O)N1CCS(=O)(=O)CC1c1cc(Cl)cc(C2CCOCC2)c1` (racemic) [Compound 28, 1-(3-(3-chloro-5-(tetrahydro-2H-pyran-4-yl)phenyl)-1,1-dioxidothiomorpholino)prop-2-en-1-one], the IC50 at KEAP1 C151 was 150 nM. Further, the Emax in the assay with Nrf2 was found to be 50%.

On to `C=CC(=O)N1CCOC[C@H]1c1cc(Cl)cc(-c2cc(OC)ncn2)c1` (single isomer, unassigned) [Compound 86], for which, on KEAP1 C151, the IC50 came to 7.3 nM. Moreover, the Emax in the assay with Nrf2 was 83%.

Consider `C=CC(=O)N1C[C@@H](C)N(C(=O)C2CC2)C[C@H]1c1cc(Cl)cc(-c2ncc(N)cn2)c1` (single isomer, unassigned) [Compound 245], for which the IC50 on KEAP1 C151 turned out to be 90 nM. For the same molecule, in the assay on Nrf2, the Emax worked out at 53%.

Consider `C=CC(=O)N1CCCCC1c1cc(Cl)cc(-c2ncc(N)cn2)c1` (single isomer, unassigned) [Compound 239, 1-(2-(3-(5-aminopyrimidin-2-yl)-5-chlorophenyl)piperidin-1-yl)prop-2-en-1-one], for which the IC50 at KEAP1 C151 stood at 220 nM. Besides, the Emax in the assay on Nrf2 is 83%.

With `C=CC(=O)N1CCOC[C@H]1c1cc(Cl)cc(-c2ncc(N)c(N)n2)c1` [Compound 253, (R)-1-(3-(3-chloro-5-(4,5-diaminopyrimidin-2-yl)phenyl)morpholino)prop-2-en-1-one], on KEAP1 C151, the IC50 worked out at 50 nM. Further, in the assay on Nrf2, the Emax stood at 93%.

Consider `C=CC(=O)N1[C@H](c2cc(Cl)nc(-c3ccc(F)c(C(N)=O)c3)c2)COC[C@H]1C(F)F` (single isomer, unassigned) [Compound 180], for which the IC50 on KEAP1 C151 is 7.3 nM. The Emax with Nrf2 was 90%.

For `C=CC(=O)N1CC2(CC2)N(C(=O)C2CC2)CC1c1cc(Cl)cc(-c2ncc(N)cn2)c1` (single isomer, unassigned) [Compound 267], the IC50 at KEAP1 C151 was found to be 10 nM. Also, the Emax in the assay with Nrf2 is 94%.

Regarding `C=CC(=O)N1CC2(COC2)C1c1cc(Cl)cc(-c2ncnc(N)n2)c1` (single isomer, unassigned) [Compound 159, 1-(5-(3-(4-amino-1,3,5-triazin-2-yl)-5-chlorophenyl)-2-oxa-6-azaspiro[3,3]heptan-6-yl)prop-2-en-1-one], on KEAP1 C151, the IC50 came to 320 nM. Besides, in the assay with Nrf2, the Emax came out at 63%.

Consider `C=CC(=O)N1CCOCC1c1cc(C#N)cc(-c2ncccn2)c1` (single isomer, unassigned) [Compound 8, 3-(4-acryloylmorpholin-3-yl)-5-(pyrimidin-2-yl)benzonitrile], for which the IC50 at KEAP1 C151 came to 55 nM. For the same molecule, in the assay on Nrf2, the Emax was determined as 53%.

As for `C=CC(=O)N1[C@H](c2cc(Cl)nc(-c3cc(C(N)=O)ncn3)c2)COC[C@H]1C(F)F` (single isomer, unassigned) [Compound 223], the IC50 at KEAP1 C151 turned out to be 3.5 nM. Also, the Emax with Nrf2 was determined as 94%.
